Read-outs that look alike come from different tables or passages of the source.
How the values were obtained:
[1] = system: Platelet aggregation (rat blood); assay: Platelet aggregation ex vivo (collagen-induced, after oral administration); format: in vivo, Male Sprague-Dawley rats; settings: one hour after administration, collagen 5.0 μg/ml
Protocol: Male Sprague-Dawley rats weighing about 250 g were used after overnight fasting. One hour after oral administration of test compound or vehicle of test compound (control), blood was collected into a tube containing 0.1 vol. of 3.8% sodium citrate. To the 0.45 ml of blood, 0.05 ml of collagen (final concentration 5.0 μg/ml) was added and then incubated for 5 min. at 37° C. under shaking.
The reaction was terminated by addition of 1 ml of 10 mM phosphate buffered saline (pH 7.4) containing 11.5 mM EDTA and 1% formalin. The reaction mixture was centrifuged at 70 xg for 5 min. and platelet count of upper phase was measured by Technicon Auto Analizer.
Platelet aggregation was calculated according to the following formula: [formula] A; Platelet count after addition of vehicle of collagen B; Platelet count after addition of collagen
Inhibition of the test compound was calculated according to the following formula; [formula] C; Platelet aggregation (%) of control D; Platelet aggregation (%) of Test compound

[2] = system: Platelet aggregation (rabbit platelet rich plasma); assay: Platelet aggregation in vitro (rabbit platelet rich plasma, ADP- or collagen-induced); format: cell-based; settings: Oryctolagus cuniculus, rabbit PRP, pH 7.4, 37° C.
Protocol: Platelet rich plasma (PRP) which contains 6-7×10^8 platelets/ml was prepared from rabbit blood. To the 200 μl of PRP, 5 μl of calcium chloride (1 mM) and 50 μl of 25 mM Tris-acetate solution (pH 7.4) containing 120 mM NaCl or test compound were added successively, and then stirred for 2 min. at 37° C. To the solution, 5 μl of adenosine diphosphate (ADP) (2.5 μM) or collagen (2.5 μg/ml) was added to an aggregation inducer. Aggregation was measured by using an aggregometer (NKK HEMATRACER 1). Activities of inhibitors (test compounds) were expressed as ID50 values i.e. Doses required to inhibit the platelet aggregation responses by 50%.

- IC50 ([2]; inducer ADP (2.5 μM), read-out: ID50 ADP): 55 µM
- IC50 ([2]; inducer collagen (2.5 μg/ml), read-out: ID50 Collagen): 37 µM
SMILES: CN1CCN(C(=O)Cn2c(=O)sc3ncc(Cl)cc32)CC1 [Example 2, 6-chloro-2-oxo-1-[(4-methyl-1-piperazinyl)carbonylmethyl]-1,2-dihydrothiazolo[5,4-b]pyridine]
- Inhibition (%) ([1]; 10 mg/kg oral): 8%
- Inhibition (%) ([1]; 32 mg/kg oral): 103%
- Inhibition (%) ([1]; 100 mg/kg oral): 121%
